Consider 31 compounds from patent US11541050B2, “Pyrimidine derivatives for the treatment of viral infections” (JANSSEN SCIENCES IRELAND UC, priority 2011, dated 2023).

In experiment [1] the target is T1, human TLR7 (wild type sequence) (Homo sapiens, UniProt Q9NYK1).
T1 construct: expressed in transfected cells; host or cells: HEK293
T1 sequence (Q9NYK1 27-1049): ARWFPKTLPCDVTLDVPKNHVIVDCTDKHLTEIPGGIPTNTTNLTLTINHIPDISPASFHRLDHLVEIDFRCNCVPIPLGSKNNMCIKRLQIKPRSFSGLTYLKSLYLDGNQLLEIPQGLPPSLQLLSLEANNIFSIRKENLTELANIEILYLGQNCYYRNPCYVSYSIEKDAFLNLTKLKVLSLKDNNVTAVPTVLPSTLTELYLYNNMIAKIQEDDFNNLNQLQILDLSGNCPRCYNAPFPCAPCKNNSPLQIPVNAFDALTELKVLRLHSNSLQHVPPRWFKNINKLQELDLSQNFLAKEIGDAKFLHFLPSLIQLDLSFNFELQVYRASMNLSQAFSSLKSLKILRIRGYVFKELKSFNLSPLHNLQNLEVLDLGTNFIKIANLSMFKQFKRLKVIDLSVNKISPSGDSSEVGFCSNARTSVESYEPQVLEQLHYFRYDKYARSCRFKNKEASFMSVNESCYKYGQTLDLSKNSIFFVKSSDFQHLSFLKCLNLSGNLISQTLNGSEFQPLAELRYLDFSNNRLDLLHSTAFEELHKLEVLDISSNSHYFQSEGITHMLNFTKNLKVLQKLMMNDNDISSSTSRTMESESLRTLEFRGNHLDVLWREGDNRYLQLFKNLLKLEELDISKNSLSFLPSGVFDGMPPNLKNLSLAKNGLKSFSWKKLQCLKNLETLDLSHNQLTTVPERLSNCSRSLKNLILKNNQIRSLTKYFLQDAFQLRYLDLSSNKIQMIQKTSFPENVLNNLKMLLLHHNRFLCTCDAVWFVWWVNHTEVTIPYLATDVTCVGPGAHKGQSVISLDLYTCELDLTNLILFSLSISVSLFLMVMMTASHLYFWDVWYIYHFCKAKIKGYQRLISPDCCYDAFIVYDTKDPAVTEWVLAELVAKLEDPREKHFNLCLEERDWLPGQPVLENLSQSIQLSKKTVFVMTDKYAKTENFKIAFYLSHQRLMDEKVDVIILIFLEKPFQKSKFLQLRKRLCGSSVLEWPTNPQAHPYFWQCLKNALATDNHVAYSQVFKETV
Briefly: TLR7 cellular NFκB-luc reporter assay, wild type TLR7. The experiment is classed as cell-based. The arrangement: unit not given here. Particulars: lowest effective concentration; for TLR 7 wt LEC: wild type TLR7 (compounds 74 onward). The procedure: (§1) The ability of compounds to activate human TLR7 and/or TLR8 was assessed in a cellular reporter assay using HEK293 cells transiently transfected with a TLR7 or TLR8 expression vector and NFκB-luc reporter construct. In one instance the TLR expression construct expresses the respective wild type sequence or a mutant sequence comprising a deletion in the second leucine-rich repeat of the TLR.
(§2) Briefly, HEK293 cells were grown in culture medium (DMEM supplemented with 10% FCS and 2 mM Glutamine). For transfection of cells in 10 cm dishes, cells were detached with Trypsin-EDTA, transfected with a mix of CMV-TLR7 or TLR8 plasmid (750 ng), NFκB-luc plasmid (375 ng) and a transfection reagent and incubated for 48 hours at 37° C. in a humidified 5% CO2 atmosphere. Transfected cells were then detached with Trypsin-EDTA, washed in PBS and resuspended in medium to a density of 1.67×10^5 cells/mL. Thirty microliters of cells were then dispensed into each well in 384-well plates, where 10 μL of compound in 4% DMSO was already present. Following 6 hours incubation at 37° C., 5% CO2, the luciferase activity was determined by adding 15 μl of Steady Lite Plus substrate (Perkin Elmer) to each well and readout performed on a ViewLux ultraHTS microplate imager (Perkin Elmer). Dose response curves were generated from measurements performed in quadruplicates. Lowest effective concentrations (LEC) values, defined as the concentration that induces an effect which is at least two fold above the standard deviation of the assay, were determined for each compound.

Experiment [2] deals with T2, human TLR8 (wild type sequence) (Homo sapiens, UniProt Q9NR97).
T2 construct: expressed in transfected cells; host or cells: HEK293
T2 sequence (Q9NR97 27-1041): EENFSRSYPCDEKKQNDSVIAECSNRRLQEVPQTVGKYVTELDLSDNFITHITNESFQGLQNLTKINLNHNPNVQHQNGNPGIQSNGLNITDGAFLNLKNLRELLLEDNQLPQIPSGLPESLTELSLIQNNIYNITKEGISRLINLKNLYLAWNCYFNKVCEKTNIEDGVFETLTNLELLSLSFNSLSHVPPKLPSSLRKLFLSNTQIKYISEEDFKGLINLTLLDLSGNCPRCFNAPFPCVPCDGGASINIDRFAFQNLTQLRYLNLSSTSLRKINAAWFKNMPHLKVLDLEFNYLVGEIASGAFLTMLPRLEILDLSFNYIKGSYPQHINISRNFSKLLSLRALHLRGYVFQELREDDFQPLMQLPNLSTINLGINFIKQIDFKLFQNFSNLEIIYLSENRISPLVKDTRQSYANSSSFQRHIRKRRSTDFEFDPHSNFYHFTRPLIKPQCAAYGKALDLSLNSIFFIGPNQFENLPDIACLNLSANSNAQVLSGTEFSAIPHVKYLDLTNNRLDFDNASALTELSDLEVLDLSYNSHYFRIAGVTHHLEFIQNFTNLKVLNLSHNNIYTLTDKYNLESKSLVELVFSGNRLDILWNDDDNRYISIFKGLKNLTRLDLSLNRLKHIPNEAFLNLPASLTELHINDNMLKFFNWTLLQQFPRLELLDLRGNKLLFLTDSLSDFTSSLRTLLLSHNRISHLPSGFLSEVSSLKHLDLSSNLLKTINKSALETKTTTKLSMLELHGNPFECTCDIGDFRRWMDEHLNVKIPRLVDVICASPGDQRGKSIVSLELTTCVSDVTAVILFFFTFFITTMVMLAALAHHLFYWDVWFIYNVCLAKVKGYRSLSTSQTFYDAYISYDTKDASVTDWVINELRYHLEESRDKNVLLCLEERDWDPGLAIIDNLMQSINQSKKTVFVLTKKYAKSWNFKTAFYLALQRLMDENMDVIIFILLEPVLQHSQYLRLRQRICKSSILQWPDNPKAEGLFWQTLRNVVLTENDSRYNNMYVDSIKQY
Nature of the experiment: TLR8 cellular NFκB-luc reporter assay, wild type TLR8. The settings on record: lowest effective concentration; for TLR 8 wt LEC: wild type TLR8 (compounds 74 onward). The experiment is classed as cell-based. Also noted: unit not given here. How it is done:
as §1, §2

Setting [3] is: wild type TLR8 (compounds 1-73).
Where [4] appears, read: wild type TLR7 (compounds 1-73).

For the compound `CCCCNc1nc(N)ncc1OCc1nccc(OC)c1OC` [Compound 180], the “TLR 7 wt LEC” value in experiment [1] turned out to be 0.135. Further, in experiment [2], the “TLR 8 wt LEC” value is recorded as 0.524. Take `CCCC[C@H](CO)Nc1nc(N)ncc1OC` [Compound 73]: the TLR8-wt_LEC in experiment [2] (setting [3]) turned out to be 0.80. For `CCCCNc1nc(N)ncc1OCc1nc2ccccc2[nH]1` [Compound 193], the “TLR 7 wt LEC” value in experiment [1] amounted to 0.032. Moreover, the “TLR 8 wt LEC” value in experiment [2] came out at 0.654.

In experiment [1] (wild type TLR7), `CCCCNc1nc(N)ncc1OCc1cc2ccccn2n1` [Compound 224] displayed a TLR7-wt_LEC of 0.206.

For `CCCCNc1nc(N)ncc1OCc1ccc2ccccc2n1` [Compound 41], in experiment [2] (setting [3]), the TLR8-wt_LEC is 0.83. As for `CCCCNc1nc(N)ncc1OCc1ccc2ccccc2n1` [Compound 157], the “TLR 7 wt LEC” value in experiment [1] is 0.333. Also, the “TLR 8 wt LEC” value in experiment [2] was 1.110. On the same counts, the results for `CCCCNc1nc(N)ncc1OCc1nn(C)c2ccccc12` [Compound 182] are 0.014 and 0.178. As for `CCCCNc1nc(N)ncc1OCc1nc2ccccc2s1` [Compound 222], the TLR7-wt_LEC in experiment [1] (wild type TLR7) is on record as 0.277.

In the case of `CCC(C)[C@H](CCO)Nc1nc(N)ncc1OC` (some centres unmarked) [Compound 275], the TLR7-wt_LEC in experiment [1] (wild type TLR7) is on record as 10.380.

In experiment [2] (setting [3]), `CCCCNc1nc(N)ncc1OCc1c(C)noc1C` [Compound 36] registered a TLR8-wt_LEC of 1.68.

For the compound `CCCCNc1nc(N)ncc1OCc1nccc2ccccc12` [Compound 123], in experiment [1], the “TLR 7 wt LEC” value stood at 0.008. In experiment [2], the “TLR 8 wt LEC” value was found to be 0.143. In experiment [2] (setting [3]), `CCCCNc1nc(N)ncc1OCc1nccc(OC)c1OC` [Compound 42] gave a TLR8-wt_LEC of 1.15. As for `COc1cnc(N)nc1NCCC1CC1` [Compound 91], the “TLR 7 wt LEC” value in experiment [1] is given as greater than 25. Moreover, the “TLR 8 wt LEC” value in experiment [2] amounted to 20.850. Take `CCCCNc1nc(N)ncc1OC(C)C` [Compound 233]: the TLR7-wt_LEC in experiment [1] (wild type TLR7) is recorded as 10.070.

Compound `CCCCNc1nc(N)ncc1OCc1cc(C)nn1C` [Compound 48] came in with a TLR8-wt_LEC in experiment [2] (setting [3]) of 1.75.

For the compound `CCCCNc1nc(N)ncc1OCc1cccnn1` [Compound 78], the “TLR 7 wt LEC” value in experiment [1] is 0.519. The “TLR 8 wt LEC” value in experiment [2] was determined as 0.827.

`CCC[C@H](CO)Nc1nc(N)ncc1OC` [Compound 72]: the TLR8-wt_LEC in experiment [2] (setting [3]) was found to be 6.57.

`COc1cnc(N)nc1N[C@H](CO)CC(C)C` [Compound 93]: the “TLR 7 wt LEC” value in experiment [1] is listed as greater than 25. For the same compound, the “TLR 8 wt LEC” value in experiment [2] is on record as 15.880. Take `CCCCNc1nc(N)ncc1OCCCc1ccccc1` [Compound 19]: the TLR7-wt_LEC in experiment [1] (setting [4]) is recorded as 1.53. The TLR8-wt_LEC in experiment [2] (setting [3]) came out at 7.94. In turn, `CCCCNc1nc(N)ncc1OCc1cnccn1` [Compound 199] displayed a TLR7-wt_LEC in experiment [1] (wild type TLR7) of 0.512. In addition, the TLR8-wt_LEC in experiment [2] came to 0.218.

On to `CCC[C@@H](CO)Nc1nc(N)ncc1OC` [Compound 55], for which the TLR8-wt_LEC in experiment [2] (setting [3]) is 0.16. The same measure, in the same setting: then `CCC[C@@H](CCO)Nc1nc(N)ncc1OC` [Compound 57], with 1.80; and `COc1cnc(N)nc1NCCCC(F)(F)F` [Compound 66], with 9.03. On to `COc1cnc(N)nc1N[C@H](CCO)CC(C)C` [Compound 261], for which the TLR7-wt_LEC in experiment [1] (wild type TLR7) was 10.790. Regarding `CCCCNc1nc(N)ncc1OCCCc1ccccc1C(F)(F)F` [Compound 162], in experiment [1], the “TLR 7 wt LEC” value is listed as 11.850. Moreover, the “TLR 8 wt LEC” value in experiment [2] is recorded as greater than 25. In experiment [1] (wild type TLR7), `CCCC[C@H](CCO)Nc1nc(N)ncc1OC` [Compound 229] yielded a TLR7-wt_LEC greater than 25. In the case of `CCCC[C@@H](CO)Nc1nc(N)ncc1OC` [Compound 59], the TLR8-wt_LEC in experiment [2] (setting [3]) is on record as 0.36. `CCCC(C)Nc1nc(N)ncc1OC` (centres unmarked) [Compound 65] gave a TLR7-wt_LEC in experiment [1] (setting [4]) of 21.59. The TLR8-wt_LEC in experiment [2] (setting [3]) amounted to 3.68. In turn, `CCCCNc1nc(N)ncc1OCCC` [Compound 5] showed a TLR7-wt_LEC in experiment [1] (setting [4]) of 6.18. In addition, the TLR8-wt_LEC in experiment [2] (setting [3]) was determined as 4.53. Consider `CC[C@H](C)[C@@H](CO)Nc1nc(N)ncc1OC` [Compound 68], for which the TLR8-wt_LEC in experiment [2] (setting [3]) worked out at 0.56.

On to `CCCC[C@@H](CCO)Nc1nc(N)ncc1OC` [Compound 54], for which the TLR8-wt_LEC in experiment [2] (setting [3]) is recorded as 1.40.
